# Laboratory results reported in paper PMC10714400, “Antimicrobial Peptide–Peptoid Hybrids with and without Membrane Disruption” (ACS Infectious Diseases, 2023).
# Read-outs that look alike come from different tables or passages of the source. Where a SMILES comes first, the peptide text is derived from it. [ ]: non-standard residue; d: D form. Nleu = CC(C)CNCC(=O)O; Nlys = NCCCCNCC(=O)O
# Legend:
# [1] = system: A. baumannii ATCC19606
# How it was run: (§1)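 MTT added (20–30 min, room temperature); MIC read by eye as lowest concentration inhibiting visible growth (yellow). Polymyxin B positive control from 16 μg/mL.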
# [2] = system: K. pneumoniae NCTC418
# How it was run: as §1
# [3] = system: S. aureus COL (MRSA)
# How it was run: as §1
# [4] = system: ZEM9A (clinical MDR P. aeruginosa isolate); conditions: for MIC ZEM9A: MH pH 7.4, 16–20 h at 37 °C
# How it was run: as §1
# [5] = system: E. coli W3110; test: NPN outer membrane permeability assay; format: cell-based, Escherichia coli; conditions: not told
# Description: Figure 4 Interactions of peptide–peptoid hybrids with bacterial outer and inner membranes of E. coli. (a, b) NPN outer membrane permeability assay. E. coli W3110 bacteria were treated with increasing compound concentrations in the presence of 10 μM NPN. The fluorescence intensity (λex = 340 nm, λem = 415 nm) was measured within 5 min. Data represent mean ± SD, n = 3. (c, d) DiSC3(5) inner membrane depolarization assay. E. coli W3110 bacteria were treated with increasing compound concentrations in the presence of 2 μM DiSC3(5). The fluorescence intensity (λex = 610 nm, λem = 660 nm) was measured within 5 min after treatment, and the data represent mean ± SD, n = 3.
# A single colony of P. aeruginosa PAO1 and E. coli W3110 was grown overnight while being shaken (150 rpm) in LB-broth (5 mL) at 37 °C. 100 μL of the overnight culture was regrown in 10 mL of LB broth with shaking (200 rpm) to the exponential phase (OD600 = 1, corresponding to 10^9 CFU/mL). Bacteria were washed three times with HEPES buffer (5 mM HEPES, 5 mM glucose, pH 7.4), but not diluted yet to their final concentration. 200 μL of peptide samples was added to the first well of 96-well plates (black wells, flat bottom, BRAND GmbH Wertheim, Germany), 100 μL of HEPES/glucose buffer with 10 μM N-phenyl-1-naphthylamine (NPN, purchased from Acros Organics) was added in all the wells, and the compounds were diluted serially by 1/2 (add a control with a final volume of 200 μL with 10 μM NPN in buffer only). Ca. 10 min before the measurement and the final dilution of the bacteria, the plates and the 10 μM NPN in HEPES/glucose buffer (for bacteria dilution) were incubated at 37 °C (prior to the dilution of the bacteria with buffer containing NPN 10 μM). Later, the bacteria were diluted to OD600 = 0.5 with the NPN in HEPES/glucose buffer. 100 μL of the bacterial suspension was added to each well. In this case, the final OD of bacteria was 0.25, the final concentration of the desired compound 64 μg/mL, and NPN 10 μM. The control wells are buffer containing NPN (10 μM, 200 μL) and bacterial suspension containing NPN in HEPES buffer. The plate was measured with a Tecan instrument Infinite M1000 within 5 min. The plate was enabled to shake for 5 s before measurement. The excitation wavelength used was 340 ± 5 nm, and emission wavelength was 415 ± 5 nm. The assay was repeated at least three times.
smiles,measurement,setting,value
CC(C)C[C@H](NC(=O)[C@H](CCCCN)NC(=O)CNCCCCN)C(=O)N[C@@H](CC(C)C)C(=O)N[C@@H](CCCCN)C(=O)N[C@@H](CC(C)C)C(=O)N[C@@H](CC(C)C)C(=O)N[C@@H](CCCCN)C(=O)N[C@@H](CC(C)C)C(=O)N[C@@H](CC(C)C)C(=O)N(CC(N)=O)CC(C)C [EB1] (H-[Nlys]KLLKLLKLL[Nleu]-NH2; N-terminus assumed),"MIC A. baumannii ATCC19606, full MH at pH 7.4","[1]; ATCC19606, 4 h, pH 7.4",2 ug/mL
same,MIC A. baumannii ATCC19606 […] 7.4,"[1]; Table S2, […] MH, pH 7.4",2 µg/mL
same,MIC A. baumannii ATCC19606 Full MH 7.4,"[1]; Table S2, full MH, pH 7.4",2 µg/mL
same,MIC A. baumannii ATCC19606 Full MH 8.5,"[1]; Table S2, full MH, pH 8.5",> 32 µg/mL
same,"MIC K. pneumoniae NCTC418, full MH at pH 7.4","[2]; NCTC418, 4 h, pH 7.4",8 ug/mL
same,MIC K. pneumoniae NCTC418 […] 7.4,"[2]; Table S2, […] MH, pH 7.4",2 µg/mL
same,MIC K. pneumoniae NCTC418 Full MH 7.4,"[2]; Table S2, full MH, pH 7.4",8 µg/mL
same,MIC K. pneumoniae NCTC418 Full MH 8.5,"[2]; Table S2, full MH, pH 8.5",> 32 µg/mL
same,MIC S. aureus COL (MRSA) Full,"[3]; COL, pH 7.4",8 µg/mL
same,MIC S. aureus COL (MRSA) […] 7.4,"[3]; Table S2, […] MH, pH 7.4",2 µg/mL
same,MIC S. aureus COL (MRSA) […] 8.5,"[3]; Table S2, […] MH, pH 8.5",2 µg/mL
same,MIC S. aureus COL (MRSA) Full MH 7.4,"[3]; Table S2, full MH, pH 7.4",8/32
same,MIC S. aureus COL (MRSA) Full MH 8.5,"[3]; Table S2, full MH, pH 8.5",32 µg/mL
same,"MIC P. aeruginosa ZEM9A, full MH at pH 7.4",[4]; CSV,16 ug/mL
same,MIC ZEM9A,[4],16 µg/mL
"CC(C)C[C@H](NC(=O)[C@H](CC(C)C)NC(=O)[C@H](CC(C)C)NC(=O)[C@H](CCCCN)NC(=O)[C@H](CC(C)C)NC(=O)[C@H](CC(C)C)NC(=O)CN(CCCCN)C(=O)CN(CC(C)C)C(=O)CN(CC(C)C)C(=O)CN(CCCCN)C(=O)CNCCCCN)C(N)=O [EB5, kkllkLLKLLL] (H-[Nlys][Nlys][Nleu][Nleu][Nlys]LLKLLL-NH2)","MIC A. baumannii ATCC19606, full MH at pH 7.4","[1]; ATCC19606, 4 h, pH 7.4",2 ug/mL
same,"MIC A. baumannii ATCC19606, full MH at pH 8.5","[1]; ATCC19606, 4 h, pH 8.5",>32 ug/mL
same,"MIC K. pneumoniae NCTC418, full MH at pH 7.4","[2]; NCTC418, 4 h, pH 7.4",>32 ug/mL
same,"MIC K. pneumoniae NCTC418, full MH at pH 8.5","[2]; NCTC418, 4 h, pH 8.5",24 ug/mL
same,MIC K. pneumoniae NCTC418 Full MH 8.5,"[2]; NCTC418, 4 h, pH 8.5",16 to 32 µg/mL
same,"MIC S. aureus COL (MRSA), full MH at pH 7.4","[3]; COL, 4 h, pH 7.4",8 ug/mL
same,"MIC S. aureus COL (MRSA), full MH at pH 8.5","[3]; COL, 4 h, pH 8.5",>32 ug/mL
same,"MIC P. aeruginosa ZEM9A, […] MH at pH 8.5","[4]; CSV, […] MH at pH 8.5",2 ug/mL
same,"MIC P. aeruginosa ZEM9A, full MH at pH 7.4",[4]; CSV,8 ug/mL
same,MIC ZEM9A,[4],8 µg/mL
same,MIC P. aeruginosa ZEM9A,"[4]; Table S3, […] MH at pH 8.5",2 µg/mL
same,Outer membrane permeabilization (NPN),[5],permeabilized the outer membrane
